System: M. tuberculosis H37Rv growth inhibition
Assay: M. tuberculosis H37Rv growth inhibitors, H37Rv strain (AID 1626)
Settings: for IC90: measured here: IC90 against H37Rv; for CC50: measured here: Vero cell cytotoxicity

Row | Compound | IC50 | IC90 | CC50
1 | O=C(Nc1ccc(N2CCN(C(=O)c3ccc(Cl)cc3)CC2)cc1)c1ccc([N+](=O)[O-])o1 | < 0.195 µM | < 0.195 µM | 0.417 µM
2 | O=C(Nc1nc2ccccc2s1)C1c2ccccc2Oc2ccccc21 |  | > 100 µM | > 40 µM
3 | O=C(Nc1ccc(-n2nncc2-c2ccco2)cc1)c1cc2ccccc2oc1=O | 1.96 µM | 6.68 µM | 19.7 µM
4 | CCCCCc1cc(=O)oc2c(C(CCN3CCCCC3)c3ccc(OC)cc3)c(OC)cc(OC)c12 (centres undefined) | 2.86 µM | 3.91 µM | 14.9 µM
5 | CCOc1ccc2nc(NC(=O)CSc3nc(-c4ccccc4)c(C#N)c(=O)[nH]3)sc2c1 |  | > 100 µM | 
6 | CCCc1ccc(-c2cc(C(=O)NC3=NCCS3)c3ccccc3n2)cc1 |  | > 100 µM | > 40 µM
7 | O=[N+]([O-])c1cccnc1N1CCC(c2cc(-c3cccc(C(F)(F)F)c3)n[nH]2)CC1 | 6.34 µM | 11 µM | > 40 µM
8 | Cc1c(CN2CCC(CO)(CCOc3ccccc3)CC2)[nH]c2ccc(Cl)cc12 | 4.57 µM | 5.33 µM | 15.6 µM
9 | O=Cc1ccc2noc(-c3ccc(F)cc3)c2c1 |  | > 100 µM | 
10 | O=c1nc(/C=C/c2ccc(-c3ccc(F)cc3)o2)cc(C(F)(F)F)[nH]1 | 10.4 µM | > 100 µM | > 40 µM
11 | Oc1cccc2ccc(/C=C/c3cccs3)nc12 | 1.49 µM | 4.51 µM | > 40 µM
12 | O=C(C[n+]1cc(-c2ccc(F)cc2)n2c1CCC2)N1c2ccccc2Sc2ccccc21 | 38.7 µM | > 100 µM | 
13 | c1ccc(-c2cc3c(N4CCN(c5ccccc5)CC4)ncnc3s2)cc1 | 11.3 µM | > 100 µM | 
14 | O=C1C=C(Nc2ccccc2O)c2ccccc2C1=O | 23.3 µM | 26.6 µM | 13.3 µM
15 | O=C(CSc1nc2ccc(Cl)cc2[nH]1)Nc1ccc2c(c1)CCC2 | 29.8 µM | > 100 µM | > 40 µM
16 | CN(C)CCNc1nc2sc3c(c2c(=O)n1CCc1ccccc1)CCCCC3 | 8.57 µM | 11.1 µM | 12 µM
17 | Cc1ccc(NCCC(=O)c2cccs2)cc1Cl | 34.6 µM | > 100 µM | 
18 | CCOC(=O)c1ccc(NC(=O)CCSCCc2ccccn2)cc1 | 55.4 µM | > 100 µM | 
19 | Cn1c(NCc2ccco2)nc2c1c(=O)n(Cc1ccc(Br)cc1)c(=O)n2C | 99.3 µM | > 100 µM | > 40 µM
20 | COc1ccc(NC(=O)NC(C)C2CC3CCC2C3)cc1 (centres undefined) | 7.4 µM | > 100 µM | > 40 µM
21 | O=C(Nc1ccccc1F)C(=Cc1sc(N2CCOCC2)nc1-c1ccccc1)C(=O)Nc1ccccc1F | 51 µM | > 100 µM | > 40 µM
22 | COc1ccccc1C(=O)OCC(=O)Nc1ccc(Cl)cn1 | 22.6 µM | > 100 µM | > 40 µM
23 | O=[N+]([O-])c1cc(S(=O)(=O)C(F)(F)F)ccc1Sc1nc2ccccc2s1 | 0.699 µM | 0.781 µM | 12.6 µM
24 | COc1ccc(Cn2c(SCc3ccc(C)cc3)nc3cc(OC)c(OC)cc3c2=N)cc1Cl | 2.5 µM | 3.09 µM | 3.1 µM
25 | O=C(Nc1nnc(-c2ccc(F)cc2)o1)c1cccc([N+](=O)[O-])c1 | 5.68 µM | 14.8 µM | 12.4 µM
26 | CCCCCCC(=O)Nc1nc(C)c(-c2csc(Nc3ccccc3OC)n2)s1 | 5.48 µM | 9.63 µM | > 40 µM

Row | Compound | IC50 | IC90 | CC50
27 | CCCCCCCCCCn1c2c(c(=N)c3c1CCC3)CCC2 | 2.42 µM | 3.59 µM | 6.09 µM
28 | O=C1c2cccc3c(N4CCOCC4)c([N+](=O)[O-])cc(c23)C(=O)N1c1cccc2ccccc12 | 5.97 µM | 6.82 µM | > 40 µM
29 | Cc1cccn2c(=O)c3cc(C(=O)NCc4ccco4)c(=N)n(CCc4ccccc4)c3nc12 | 9.99 µM | 21.2 µM | 18.8 µM
30 | Cc1ccc(-c2cc(C(=O)Nc3nccs3)c3ccccc3n2)c(C)c1 | 9.6 µM | 11.9 µM | > 40 µM
31 | COc1ccc(NC(C#N)c2ccc(OC)cc2)cc1 (centres undefined) |  | > 100 µM | 
32 | CC1CCc2nc(NC(=O)CN3CCN(c4ccccc4)CC3)sc2C1 (centres undefined) | 24.6 µM | > 100 µM | 
33 | OCCN1CCN(c2nc(-c3ccccc3)nc3c2oc2ccccc23)CC1 | 4.89 µM | 8.31 µM | 13.6 µM
34 | CCOC(=O)c1cnc(-n2nc(C)cc2C)nc1NC1CCCC1 | 0.755 µM | 0.859 µM | 15.2 µM
35 | O=C(CSc1nnc(-c2ccccc2Br)o1)N1CCc2ccccc2C1 | 2.32 µM | 3.38 µM | 
36 | Cc1cc(C)c2c(n1)sc1c(N3CCCCC3)ncnc12 | 16.7 µM | > 100 µM | 
37 | O=C(OCc1cccc2ccccc12)c1ccc2c(=O)[nH]c(CN3CCOCC3)nc2c1 | 0.478 µM | > 100 µM | > 40 µM
38 | Cc1cc(C)c(-c2csc(NC(=O)/C=C/c3cccs3)n2)c(C)c1 | 4.66 µM | 8.18 µM | > 40 µM
39 | COc1c(F)c(F)c(C(=O)Nc2ccc(N3CCN(Cc4ccccc4)CC3)cc2)c(F)c1F | 35.9 µM | > 100 µM | 27.5 µM
40 | COc1ccc(NC2=CC(c3ccc(OC)cc3)N(c3ccc(OC)cc3)C2=O)cc1 (centres undefined) |  | > 100 µM | > 40 µM
41 | O=C1c2ccc3c4c(ccc(c24)C(=O)N1CCCCO)C(=O)N(CCCCO)C3=O | 7.04 µM | 12.9 µM | 5.2 µM
42 | Cc1nc(NCc2ccc3c(c2)OCO3)c2oc3ccccc3c2n1 | 7.7 µM | 21.8 µM | 
43 | O=C(COC(=O)c1sc2ccccc2c1Cl)NC1CCCCC1 | 12.7 µM | > 100 µM | > 40 µM
44 | CN(C)c1ccc(/C=C/C=C2/C(=O)NC(=O)N(c3ccccc3)C2=O)cc1 | 2.5 µM | 4.66 µM | > 40 µM
45 | COc1ccc2cc(-c3[nH]ncc3CN3CCCN(c4ccccc4)CC3)ccc2c1 | 9.35 µM | 15.4 µM | > 40 µM
46 | Cc1ccc(Sc2cc(C)nc(-c3ccccn3)n2)cc1 | 2.26 µM | 15.7 µM | 10.8 µM
47 | N#CC1=C(c2ccccc2)/C(=C/c2ccccc2)OC1=O | 17.6 µM | > 100 µM | 15.4 µM
48 | O=C(C[n+]1cc(-c2ccc(Cl)cc2)n2c1CCC2)N1c2ccccc2Sc2ccccc21 | 12.1 µM | 13.7 µM | 
49 | CCN(CC(=O)NC(C)(C)C)C(=O)COc1c(Cl)cc(Cl)c2ccc(C)nc12 | 3.94 µM | 13.9 µM | 36.8 µM
50 | O=C(Nc1ccccc1Cl)Oc1ccc(-c2ccccc2)cc1 | 59.5 µM | > 100 µM | > 40 µM
51 | O=C(Nc1ccc(C(F)(F)F)cc1)N1CCN(c2ccnc3cc(Cl)ccc23)CC1 | 8.62 µM | 15.4 µM | 8.22 µM
52 | COCCN=C1Sc2nc3ccc(C)cc3cc2CN1Cc1cccs1 | 10.6 µM | 13.8 µM | 

Row | Compound | IC50 | IC90 | CC50
53 | Cc1cc(NCCCn2ccnc2)n2nc(-c3ccc(Cl)cc3)cc2n1 | 11.1 µM | 15.8 µM | > 40 µM
54 | Cc1ccccc1-n1c(O)c(C=Nc2ccc3c(c2)OCO3)c(=O)[nH]c1=O |  | > 100 µM | 
55 | COc1cc(OC)c2c(-c3ccccc3)cc(=O)oc2c1C(CCN1CCCCC1)c1ccc(N(C)C)cc1 (centres undefined) | 8.78 µM | 12.1 µM | 20.4 µM
56 | COc1ccc(-c2nn(-c3ccccc3)cc2C(=O)Nc2nccs2)cc1 |  | > 100 µM | > 40 µM
57 | Clc1ccc(SCc2cc(N3CCOCC3)nc(-c3ccccn3)n2)cc1 | 8.83 µM | 41.6 µM | 12.2 µM
58 | O=C(Nc1nccs1)c1ccccn1 | 6.09 µM | 15.7 µM | > 40 µM
59 | CC(C)OC(=O)CSc1ncnc2c1cnn2Cc1ccccc1 | 8.22 µM | 19 µM | 
60 | CCOC(=O)CSc1nnc(-c2ccc(OC)cc2OC)o1 | 1.24 µM | 2.38 µM | 
61 | Cc1ccc(-c2csc(NC(=O)CSc3nc4ccccc4c(=O)n3CCCN(C)C)n2)cc1 | 7.67 µM | 9.52 µM | 12 µM
62 | C=CCOC(=O)C(C#N)c1nc2ccccc2nc1N1CCN(Cc2ccc3c(c2)OCO3)CC1 (centres undefined) | 5.44 µM | 6.17 µM | > 40 µM
63 | COc1ccc(-c2nsc(SCC(=O)NCC3CCCO3)n2)cc1 (centres undefined) | 2.25 µM | 5.2 µM | 
64 | N#Cc1ncc(-c2ccc3c(c2)OCCOCCOCCOCCOCCO3)nc1C#N | 1.8 µM | 3.08 µM | 22.6 µM
65 | COc1cc(/C=C/C(=O)c2cccc([N+](=O)[O-])c2)cc(OC)c1OC | 3.77 µM | 11.2 µM | 18.5 µM
66 | COc1ccc(Cn2c(SCc3ccccc3C)nc3cc(OC)c(OC)cc3c2=N)cc1 | 2.24 µM | 3.02 µM | 6.78 µM
67 | O=C(Nc1nc(-c2ccncc2)cs1)C1c2ccccc2Oc2ccccc21 |  |  | > 40 µM
68 | COC(=O)CSc1nnc(-c2ccc(OC)cc2OC)o1 | 1.76 µM | 4.54 µM | 
69 | Cc1ccc(Cl)c(OC(=O)c2ccc(N3CCOCC3)c([N+](=O)[O-])c2)c1 | 6.6 µM | > 100 µM | 
70 | O=C(CCNc1ccc(Cl)c(C(F)(F)F)c1)c1ccco1 | 49.3 µM | > 100 µM | 
71 | COc1ccc(Cl)cc1NC(=O)C(C)N1CCN(C/C=C/c2ccccc2)CC1 (centres undefined) | 12.3 µM | 13.3 µM | 
72 | COc1ccc(N2CN=C3SCC(=O)N3C2)cc1 | 46.5 µM | > 100 µM | 
73 | O=C(NCc1ccco1)c1cc2n(n1)C(C(F)(F)F)CC(c1ccc(Cl)c(Cl)c1)N2 (centres undefined) |  | > 100 µM | > 40 µM
74 | Cc1[nH]n(-c2nc(-c3ccc(Cl)cc3)cs2)c(=O)c1N=Nc1ccc(O)cc1 | < 0.195 µM | 5.6 µM | 15.8 µM
75 | CC(C)(C)NC(=O)COC(=O)c1cc(Br)ccc1Cl | 11.9 µM | > 100 µM | 
76 | CCC(=O)Nc1nnc(-c2ccc(OC)cc2)o1 | 6.08 µM | > 100 µM | 
77 | COc1ccc(-c2nc(NC(=O)c3cc(C(C)(C)C)nn3C)sc2C)cc1 | 4.42 µM | 8.83 µM | > 40 µM
78 | O=C(Nc1ccc(N2CCN(C(=O)c3ccccc3)CC2)cc1)c1ccc([N+](=O)[O-])o1 | < 0.195 µM | < 0.195 µM | 1.63 µM

From PubChem BioAssay AID1626 (SRMLSC, 2009)
